In patent US12186283B2, “Bismuth-thiol compositions and methods of use” (Microbion Corporation, priority 2018, dated 2025):
Converted amounts (≈) assume the structure as drawn. “And” between values parts separate entries of the source, which are not always exact repeats. Equal values may be shown once. Read-outs that look alike come from different tables or passages of the source.

Assays:
[1] = test system: beta-hemolytic streptococci (S. pyogenes, S. agalactiae); assay: Broth microdilution MIC (Example 11); type: cell-based, Streptococcus pyogenes, Streptococcus agalactiae
[2] = test system: Burkholderia cepacia complex; assay: Checkerboard FIC assay, BisEDT with CF agents (Example 10); type: cell-based, Burkholderia spp.
[3] = test system: S. pneumoniae (pneumococci); conditions: S. pneumoniae MMX 6837 (ATCC 49619); cited from earlier work
[4] = test system: Enterococcus spp. (E. faecalis, E. faecium); assay: Broth microdilution MIC (Example 11); type: cell-based; conditions: VRE, VRE
P. aeruginosa = assay: Checkerboard FIC assay, BisEDT with CF agents (Example 10); type: cell-based, Pseudomonas aeruginosa; conditions: for MICB: Meropenem MIC in combination with BisEDT
Pseudomonas aeruginosa = conditions: P. aeruginosa MMX 103 (ATCC 27853); cited from earlier work
Escherichia coli = conditions: E. coli MMX 102 (ATCC 25922); cited from earlier work
S. aureus ATCC 29213 = assay: Broth microdilution MIC, QC organism (Example 13, Table 110); type: cell-based, Staphylococcus aureus
Text: (§1) MECs were only reported where observed.

Candida spp. [5] = assay: Broth microdilution MIC, yeast (Example 13), group statement and QC; type: cell-based; conditions: C. parapsilosis ATCC 22019, comparators, single value
Candida krusei [6] = conditions: C. krusei ATCC 6258, CLSI established QC range, cited from earlier work
E. coli ATCC 25922 = assay: Broth microdilution MIC, QC organism (Example 13, Table 110); type: cell-based, Escherichia coli
Text: as §1

Aspergillus spp. [7] = assay: Broth microdilution MIC/MEC, mold (Example 13); type: cell-based
Aspergillus spp. [8] = conditions: cited from earlier work
Candida krusei [9] = assay: Broth microdilution MIC, yeast (Example 13); type: cell-based; conditions: C. krusei ATCC 6258 (QC, Table 110), comparators, single value
Candida spp. [10] = conditions: C. parapsilosis ATCC 22019, CLSI established QC range, cited from earlier work
[11] = test system: Candida spp. (C. parapsilosis, C. albicans, C. glabrata, C. tropicalis); conditions: C. parapsilosis MMX 2323 (ATCC 22019), cited from earlier work
[12] = test system: Staphylococcus aureus (MRSA); conditions: S. aureus MMX 101 (ATCC 29213); cited from earlier work
[13] = P. aeruginosa 6322, Meropenem in combination with BisEDT, checkerboard rows C-G

## C[C@@H](O)[C@H]1C(=O)N2C(C(=O)O)=C(S[C@@H]3CN[C@H](C(=O)N(C)C)C3)[C@H](C)[C@H]12 [Meropenem, reference compound]
[1]; S. agalactiae MMX 3741, ERY^R CC^R, read-out: MIC
  MIC: 0.03 mg/L (≈ 0.0782 µM)
[1]; S. agalactiae MMX 3743, ERY^R CC^R, read-out: MIC
  MIC: 0.06 mg/L (≈ 0.156 µM)
[1]; S. agalactiae MMX 4077, ERY^R CC^R, read-out: MIC
  MIC: 0.06 mg/L (≈ 0.156 µM)
[1]; S. agalactiae MMX 4079, ERY^R CC^R Pen^R MEM^R, read-out: MIC
  MIC: 8 mg/L (≈ 20.9 µM)
[1]; S. agalactiae MMX 4086, ERY^R CC^R, read-out: MIC
  MIC: 0.06 mg/L (≈ 0.156 µM)
[2]; B. cenocepacia 548, FIC of Meropenem in combination with BisEDT
  FICB: 1
[2]; B. cenocepacia 548, MIC of Meropenem in combination with BisEDT
  MICB: 4 µg/mL
[2]; B. cenocepacia 813, FIC of Meropenem in combination with BisEDT
  FICB: 1
[2]; B. cepacia 546, Meropenem FIC in combination with BisEDT, per checkerboard row
  FICB: 1 and 2
[2]; B. cepacia 546, Meropenem MIC in combination with BisEDT, per checkerboard row
  MICB: 4 µg/mL and 8 µg/mL
[2]; B. cepacia 1793, Meropenem FIC in combination with BisEDT, per checkerboard row
  FICB: 2 and 4
[2]; B. cepacia 1793, Meropenem MIC in combination with BisEDT, per checkerboard row
  MICB: 8 µg/mL and 16 µg/mL
[2]; B. multivorans 1795, MIC of Meropenem in combination with BisEDT
  MICB: 4 µg/mL
[2]; B. multivorans 1795, Meropenem alone, panel with BisEDT, read-out: Drug B MIC
  MIC: 4 mg/L
[3]
  MIC, CLSI QC range: (0.06-0.25) μg/mL
[4]; Enterococcus faecium, E. faecium MMX 485, vanA, LevR, CipR, EryR, read-out: MIC
  MIC: > 64 mg/L
P. aeruginosa; [13]
  FICB: 1
  MICB (Drug B concentration in combination): 16 µg/mL
P. aeruginosa; P. aeruginosa 8798, Meropenem FIC in combination with BisEDT, per checkerboard row
  FICB: 1
P. aeruginosa; P. aeruginosa 8798, per checkerboard row
  MICB: 32 µg/mL
P. aeruginosa; P. aeruginosa 9108, Meropenem FIC in combination with BisEDT, per checkerboard row
  FICB: 1
P. aeruginosa; P. aeruginosa 9108, per checkerboard row
  MICB: 1 µg/mL
Pseudomonas aeruginosa
  CLSI QC range (MIC): (0.25-1)
Escherichia coli
  CLSI QC range (MIC): (0.008-0.06) μg/mL

## C[C@@H](c1ncncc1F)[C@](O)(Cn1cncn1)c1ccc(F)cc1F [Voriconazole]
S. aureus ATCC 29213
  MIC 24 hr: > 64 mg/L
Candida spp. [5]; 48 hr
  MIC 48 hr: 0.12 mg/L (≈ 0.344 µM)
Candida krusei [6]
  QC Range 24 hr: 0.06-0.5
  QC Range 48 hr: 0.12-1
E. coli ATCC 25922
  MIC 24 hr: > 64 mg/L
Aspergillus spp. [7]; A. flavus ATCC 204304 (QC, Table 110)
  MIC 24 hr: 0.12 mg/L (≈ 0.344 µM)
Aspergillus spp. [7]; A. fumigatus ATCC MYA-3626 (QC, Table 110)
  MIC 24 hr: 0.25 mg/L (≈ 0.716 µM)
Aspergillus spp. [8]; A. flavus ATCC 204304, CLSI established QC range
  QC Range 48 hr: 0.5-4
Aspergillus spp. [8]; A. fumigatus ATCC MYA-3626, CLSI established QC range
  QC Range 48 hr: 0.25-1
Candida krusei [9]
  MIC 24 hr: 0.12 mg/L (≈ 0.344 µM)
  MIC 48 hr: 0.5 mg/L (≈ 1.43 µM)
Candida spp. [10]
  QC Range 24 hr: 0.015-0.12
  QC Range 48 hr: 0.03-0.25

## OC(Cn1cncn1)(Cn1cncn1)c1ccc(F)cc1F [fluconazole, reference compound]
S. aureus ATCC 29213
  MIC 24 hr: > 64 mg/L
Candida spp. [5]; 24 hr
  MIC 24 hr: 1 mg/L (≈ 3.27 µM)
Candida krusei [6]
  QC Range 24 hr: 8-64
  QC Range 48 hr: 16-128
E. coli ATCC 25922
  MIC 24 hr: > 64 mg/L
Aspergillus spp. [7]; Aspergillus spp.
  activity: inactive
Candida krusei [9]
  MIC 24 hr: 16 mg/L (≈ 52.2 µM)
  MIC 48 hr: 32 mg/L (≈ 104 µM)
[11]; 24 hr
  MIC, CLSI QC range: 0.5 to 4 mg/L
[11]; 48 hr
  MIC, CLSI QC range: 1 to 4 mg/L
Candida spp. [10]
  QC Range 24 hr: 0.5-4
  QC Range 48 hr: 1-4

## CN[C@H](CC(C)C)C(=O)N[C@H]1C(=O)N[C@@H](CC(N)=O)C(=O)N[C@H]2C(=O)N[C@H]3C(=O)N[C@H](C(=O)N[C@H](C(=O)O)c4cc(O)cc(O)c4-c4cc3ccc4O)[C@H](O)c3ccc(c(Cl)c3)Oc3cc2cc(c3O[C@@H]2O[C@H](CO)[C@@H](O)[C@H](O)[C@H]2O[C@H]2C[C@](C)(N)[C@H](O)[C@H](C)O2)Oc2ccc(cc2Cl)[C@H]1O [vancomycin, reference compound]
[1]; S. agalactiae MMX 3741, ERY^R CC^R
  MIC: 0.5 mg/L (≈ 0.345 µM)
[1]; S. agalactiae MMX 3743, ERY^R CC^R
  MIC: 0.5 mg/L (≈ 0.345 µM)
[1]; S. agalactiae MMX 4077, ERY^R CC^R
  MIC: 0.5 mg/L (≈ 0.345 µM)
[1]; S. agalactiae MMX 4079, ERY^R CC^R Pen^R MEM^R
  MIC: 2 mg/L (≈ 1.38 µM)
[1]; S. agalactiae MMX 4086, ERY^R CC^R
  MIC: 1 mg/L (≈ 0.69 µM)
[12]
  CLSI QC range (MIC): (0.5-2) μg/mL
[3]
  MIC, CLSI QC range: (0.12-0.5) μg/mL
[4]; E. faecalis MMX 8961, LevR, CipR, EryR
  MIC: >64 mg/L
[4]; E. faecalis MMX 8962, LevR, CipR, EryR
  MIC: >64 mg/L
[4]; E. faecium MMX 485, vanA, LevR, CipR, EryR
  MIC: >64 mg/L
[4]; Enterococcus faecalis
  MIC: > 64 mg/L
[4]; Enterococcus faecium
  MIC: > 64 mg/L
